SMILES | logP
CCOC(=O)C(=Cc1ccccc1C)C(C)=O | 2.66
COc1ccc(NS(=O)(=O)C(F)(F)F)cc1 | 3
COn1c(=O)[nH]c(C)c(Br)c1=O | -0.3
Nc1nc(N)nc(-c2cc(F)ccc2Br)n1 | 1.45
CC(=O)C(C#N)=NNc1ccc(Cl)cc1 | 4.1
CNc1cc(Cc2cnc(N)nc2N)cc(NC)c1 | 0.44
[Br-].c1ccc(CC[n+]2ccccc2)cc1 | -2.35
CN(C)CC(=O)NCc1ccccc1 | 1.11
Cc1c(N(C)C)cc(Cc2cnc(N)nc2N)cc1N(C)C | 2.06
CCOP(N)(=O)SCC (configuration not stated) | 0.15
C=CCC1(C2=CCCC2)C(=O)NC(=O)N(C)C1=O (configuration not stated) | 1.89
O=S(=O)(Nc1ccc(Cl)cc1)C(F)(F)F | 3.96
CNC(=O)Oc1ccccc1SC | 1.51
CS(=O)(=O)CCCOc1ccc([N+](=O)[O-])cc1 | 0.93
CCOC(=O)N(C)SN(C)C(=O)ON=C(C)SC | 1.9
CC(=O)c1ccc(N2C(N)=NC(N)=NC2(C)C)cc1 | -0.04
COc1ccc(CC(C)N)c(OC)c1OC (configuration not stated) | 1.51
COc1cc(Cc2cnc(N)nc2N)cc(OC)c1OCc1ccccc1 | 2.46
COc1cc(Cc2cnc(N)nc2N)cc(C)c1OC | 1.62
CCOC(=O)C(C#N)=NNc1ccc(Cl)c(C(F)(F)F)c1 | 4.86
CNC(=O)NN | -2.2
CC1CCN(N=O)CC1 | 1.05
O=C(NC(CO)C(O)c1ccc([N+](=O)[O-])cc1)c1ccccc1 (configuration not stated) | 1.63
Nc1nc(N)nc(-c2cc(Cl)ccc2Cl)n1 | 1.97
Cc1cc(C)nc(-n2c(C)cc(=O)n2C)n1 | 0.51
CNC(=O)C1CCCN1C(C)=O (configuration not stated) | -1.19

SMILES | logP
Oc1nc2ccccc2nc1O | 0.2
CCc1cccc(OC2OC(CO)C(O)C(O)C2O)c1 (configuration not stated) | 0.31
COc1cc(Cc2cnc(N)nc2N)cc(OC)c1C(N)=O | -0.85
CNC(=O)Oc1cccc(I)c1 | 2.52
CCN(CC)CCCNC(=O)c1ccccc1 | 1.56
COc1cc(C)n(-c2ccncn2)n1 | 2.21
COc1ccccc1C(=O)NCCCN(C)C | 1.27
Cn1nnc2ccccc21 | 1.13
CN(C)c1ccc(N=C2C=CC(=O)C=C2)cc1 | 2.02
CC(=O)OCC1=C(C(=O)O)N2C(=O)[C@@H](NC(=O)CBr)[C@H]2SC1 | -0.7
CCC(C)NP(=O)(OC)SC (configuration not stated) | 0.95
CCCCC1=Nc2ccc(Cl)cc2S(=O)(=O)N1 | 2.52
Nc1nc2ccccc2o1 | 1.53
CCCCOCc1c(CO)cnc(C)c1O | 1.34
CCOP(=S)(OCC)SCS(=O)C(C)(C)C (configuration not stated) | 2.21
COc1cc(Cc2cnc(N)nc2N)cc(OC)c1SC | 1.54
CCCCNc1nnc(C(C)C)c(=O)n1N | 1.78
CNC(=O)Oc1cccc(C(F)(F)F)c1 | 2.37
Nc1ccc(OC(=O)CNC(=O)c2ccccc2)cc1 | 1.01
CCOP(=S)(OCC)SCS(=O)CC (configuration not stated) | 1.78
O=C1CN=C(c2ccccc2Cl)c2cc(Cl)ccc2N1 | 3.15
O=C(CN1CCCCC1)Nc1ccc([N+](=O)[O-])cc1 | 2.72
NS(=O)(=O)c1cccc(OC(=O)CNC(=O)c2ccccc2)c1 | 0.84
CC(=O)c1ccc(NS(=O)(=O)C(F)(F)F)cc1 | 2.83
CCC(=O)N(C)SN(C)C(=O)ON=C(C)SC | 1.6
NC(=O)c1cccc(OC(=O)CNC(=O)c2ccccc2)c1 | 1.2

SMILES | logP
O=C(O)c1ccccc1NCCO | 1.35
CC(=O)Nc1cnc2ccccc2c1 | 1.92
CCOP(=S)(OCC)Oc1ccc(S(C)(=O)=O)cc1 | 2.56
CNc1ncnc2sccc12 | 1.43
CN(C)c1ccc(C(N)=O)cc1 | 1.14
CCNC1=NC(=O)C(=Cc2ccc([N+](=O)[O-])o2)S1 | 1.16
O=[N+]([O-])C=Cc1cccc(Cl)c1 | 2.57
COc1ccc(Cc2cnc(N)nc2N)cc1 | 1.34
COc1cc(-n2c(C)cc(=O)n2C)nc(C)n1 | 0.38
CC(=O)N(C)c1c(I)c(C(=O)NCC(O)CO)c(I)c(C(=O)NCC(O)CO)c1I (configuration not stated) | -2.06
CCCNCC(=O)NC(=O)C=[N+]=[N-] | -0.24
FC(F)(F)c1nc2cc(Br)c(Br)cc2[nH]1 | 4.15
CCOP(=S)(OCC)SCS(=O)(=O)C(C)(C)C | 2.48
CC(C)c1ccc(C(O)C(CO)NC(=O)C(Cl)Cl)cc1 (configuration not stated) | 2.24
CC(=O)OCC1=C(C(=O)O)N2C(=O)C(NC(=O)CSc3cc(Cl)ccc3Cl)C2SC1 (configuration not stated) | 1.66
CN(C)/N=N/c1ccccc1Cl | 3.03
O=C(O)Cc1ccc(OCc2ccccc2)c(Cl)c1 | 3.43
CN(C)c1ccc2c(c1)C(c1ccccc1)=NCC(=O)N2 | 2.43
CCOC(=O)C(=Cc1ccc(OC)cc1)C(=O)OCC | 3.28
COCN1C(=O)CN=C(c2ccccc2Cl)c2cc(Cl)ccc21 | 3.23
O=C(c1ccncc1)c1ccc(Cl)cc1 | 2.61
O=S(=O)(Nc1ccc(F)cc1F)C(F)(F)F | 3.06
O=C(NC(CO)C(O)c1ccccc1)C(Cl)Cl (configuration not stated) | 0.94
O=S1(=O)NC(C2CCCC2)=Nc2ccccc21 | 1.83
COc1cc(Cc2cnc(N)nc2N)ccc1O | 0.64
N#Cc1ccc(NC(=O)N=C(N)N)cc1Cl | 1.9

SMILES | logP
O=C1CN=C(c2cccc(Cl)c2)c2cc(Br)ccc2N1 | 3.63
NS(=O)(=O)c1cc2c(cc1[N+](=O)[O-])NCNS2(=O)=O | 0.2
O=[N+]([O-])c1ccc(OCCn2ccnc2)cc1 | 1.69
CC(=O)Nc1cccc(N=NN(C)C)c1 | 1.61
Nc1nc(N)nc(-c2cc(Cl)ccc2Br)n1 | 1.85
CC(C)NNC(=O)C(C)(C)Oc1ccc(Cl)cc1 | 2.56
CCCCCCCCCCCCCCCCCC[n+]1ccccc1.[I-] | 3.68
COc1ccccc1NC(=O)C(Cl)Cl | 2.41
Cc1cc(NC(=O)NC(=N)N)ccc1Cl | 2.19
COc1cc(-n2c(=O)cc(C)n2C)ncn1 | 0.3
CCc1nnc(SC)n(N)c1=O | 0.46
CN=C1SC(=Cc2ccc([N+](=O)[O-])o2)C(=O)N1C | 1.42
Cc1cccc2nccc(=O)n12 | 0.74
CSc1ccccc1C1=NCC(=O)Nc2ccc(Cl)cc21 | 2.99
Cc1[nH]c(=O)n(OCCCl)c(=O)c1Br | 0.3
Clc1ccc(Cl)c(N=C2NCCN2)c1 | 2.04
CCOC(=O)C(=Cc1cccc(F)c1)C(=O)OCC | 3.19
COc1cc(C)n(-c2nc(C)cc(C)n2)n1 | 1.82
CC(=O)C(C#N)=NNc1ccc(Cl)c(Cl)c1 | 4.56
O=[N+]([O-])c1cccc(OC2OC(CO)C(O)C(O)C2O)c1 (configuration not stated) | -0.51
NC(=S)NN=Cc1cccc(O)c1 | 1.61
CCN(CC)CC(=O)NC1c2ccccc2-c2ccccc21 | 3.64
CCCCN(SN(C)C(=O)Oc1cccc2c1OC(C)(C)C2)C(=O)OC | 4.6
CC(C)(C)CC1=Nc2ccc(Cl)cc2S(=O)(=O)N1 | 2.71
NNC(=O)c1ccc(N)cc1 | -0.75
NC(=O)Nc1ccc(Oc2ccc(Br)cc2)cc1 | 3.7

SMILES | logP
CCN1CCCCCC1=O | 0.65
CCSC(=O)Oc1cccc2cccnc12 | 2.74
NC(=O)NN=CCCc1ccccc1 | 2.32
O=S1(=O)N=C(c2ccccc2)Nc2ccccc21 | 1.78
CCC(=O)N(C)SN(C)C(=O)Oc1cccc2c1OC(C)(C)C2 | 3.2
CCN(CC)/N=N/c1nc[nH]c1C(N)=O | 0.78
CC(=O)N(CCO)c1c(I)c(C(=O)NCC(O)CO)c(I)c(C(=O)NCC(O)CO)c1I (configuration not stated) | -2.47
CNC(=O)C(Cc1ccccc1)NC(C)=O (configuration not stated) | 0.4
O=[N+]([O-])c1nccnc1NCC(O)CO (configuration not stated) | -0.49
S=C=Nc1ccc(Nc2ccccc2)cc1 | 4.94
CC(=O)N(CCCl)c1ccc(CC(=O)O)cc1 | 1.2
COc1cc(S(=O)(=O)CCN2CCOCC2)cc(OC)c1OC | 1.29
CC1N=C(c2ccccc2Cl)c2cc(Cl)ccc2N(C)C1=O (configuration not stated) | 3.4
COc1cccc(OC2OC(CO)C(O)C(O)C2O)c1 (configuration not stated) | -0.52
OCC1OC(Oc2cccc(C(F)(F)F)c2)C(O)C(O)C1O (configuration not stated) | 0.49
O=[N+]([O-])c1cnc(N=C2SCCN2CCO)s1 | 1.28
C=CC(CC)OC(N)=O (configuration not stated) | 1.09
CCCCC1OC(=O)c2cc([N+](=O)[O-])ccc21 (configuration not stated) | 2.92
O=[N+]([O-])c1cccc(C2NCCS2)c1 (configuration not stated) | 1.59
CCOP(=O)(OCC)Oc1c(Cl)cc(SC)cc1Cl | 3.72
CC(=O)c1ccccc1OC(=O)N(C)C | 0.93
NC(=O)c1ccc(Cl)nn1 | 0
Cn1c(=O)c(=O)n(C)c2ccccc21 | 0.08
FC(F)OC(F)(F)C(F)Cl (configuration not stated) | 2.1
CCCc1nnc(N)o1 | 0.23
CCS(=O)(=O)CCn1ccnc1[N+](=O)[O-] | -0.58

SMILES | logP
CC(=O)c1ccc2c(c1)C(c1ccccc1F)=NCC(=O)N2 | 1.75
CNC=CC(C)c1ccccn1 (configuration not stated) | 1.13
CNC(=O)Oc1cc(C)c(Cl)cc1C | 2.95
COc1cc(CC(=O)O)ccc1OCC1CCCCC1 | 3.35
Nc1cnccn1 | -0.07
CCCNC(=NC#N)NC | 0.42
CCOC(=O)CN(C(=O)CCl)c1ccccc1OC | 1.78
O=C([O-])c1ccc2ccccc2c1.[Na+] | -1.07
Cc1ccc(OC(=O)CNC(=O)c2ccccc2)cc1 | 2.83
CC1=Nc2c(Cl)cccc2S(=O)(=O)N1 | 0.72
CCOP(=O)(OCC)Oc1ccc(SC)cc1 | 2.79
O=C(NN=Cc1ccccc1)c1ccccc1 | 2.56
C=Cc1cnc([N+](=O)[O-])n1C | 0.64
CC1(C)N=C(N)N=C(N)N1c1ccc(C(F)(F)F)cc1 | 1.22
CSC(C)=NOC(=O)N(C)SN(C)C(=O)OC1CCCCC1 | 3.6
COc1cc(C=C[N+](=O)[O-])ccc1O | 1.88
O=C(O)COc1ccc(Cl)c(C(=O)O)c1 | 1.07
OCC1C(Cl)C(Cl)C(Cl)C(Cl)C1Cl (configuration not stated) | 2.94
CC(C)c1cccc(OC2OC(CO)C(O)C(O)C2O)c1 (configuration not stated) | 0.65
Cc1nnc(N)o1 | -0.92
CCCCCC1(CC)C(=O)NC(=O)N(C)C1=O (configuration not stated) | 2.45
CCCCCCCCCCCCCCCC[n+]1cc(C)cc(C)c1.[I-] | 3.35

From the OPERA property sets (Mansouri et al. 2018)
